Measurements: patent publication US5162328A, “N-[3-[2-(1H-imidazol-1-yl)ethoxy]phenyl]-4-(2-thienyl)-2-pyrimidinamine and pharmacologically acceptable salts” (American Cyanamid Company, priority 1991, dated 1992)
Where two headings read alike, the source gives them in different places.

Assay: Pharmacokinetics in dogs (plasma concentration by HPLC)
Type: in vivo, dog (beagle)
Conditions: for AUC(0-inf): read-out: AUCO- (to infinite time); for concentration at 0.5 h / concentration at 1 h / concentration at 2 h / concentration at 4 h / concentration at 7 h / Cmax / AUC(0-t) at 4 h: one dog (Dog 1); for concentration at 0.5 h / concentration at 1 h / concentration at 2 h / concentration at 4 h / concentration at 7 h: heading: Plasma concentration; for AUC(0-t) at 4 h: read-out: AUC0-4
Method: Since dogs are used in toxicology studies of antiasthma compounds, this species is chosen for pharmacokinetic evaluations. Use of the dog permits the pharmacokinetic comparison of 2 or more compounds in the same test animal, an evaluation which could not be conveniently performed in a smaller species. For each test compound, normal dogs are given a dose of 2.0 mg/kg/day for 5 consecutive days. There is a washout period of 1 month between the study of each of the test compounds in the same four dogs. Each test compound is administered as a solution of 5 mg/ml in either 0.05 or 0.1N HCl which is dispensed into a gelatin capsule immediately prior to dosage.
Heparinized blood samples are obtained from each animal on the first, third and fifth day of dosage at 0.5, 1.0, 2.0, 4.0, 7.0, 12.0 and 24.0 hours after the dose. The samples are centrifuged immediately to obtain plasma which is frozen until analyzed.
Analysis of plasma is performed using High Performance Liquid Chromatography (HPLC). The analytical procedure is essentially identical for each compound. The internal standard used for N-[3-[2-(1H-imidazol-1-yl)ethoxy]phenyl]-4-(2-thienyl)2-pyrimidinamine is 2-chloro-11-(4-methyl-1-piperazinyl)dibenz[b,f][1,4]oxazepine succinate, while for 2-methyl-N^4 -[4-(4-pyridinyl)-2-pyrimidinyl]-1,4-benzenediamine dihydrochloride and N-[4-[2-(diethylamino)ethoxy]phenyl]-4-(4-pyridinyl)-2-pyrimidnamine dihydrochloride the internal standard is 7-ethoxy-coumarin. In a typical procedure, a 0.4 ml volume of acetonitrile containing internal standard is added a 0.2 ml volume of serum. The sample is mixed by vortexing and centrifuged. The clear protein free supernatent fluid is decanted into a clean tube and evaporated to dryness. The dry residue is dissolved in 0.2 ml of HPLC mobile phase and 50 ul of this solution injected. Peaks corresponding to the test compound being measured and to the internal standard compound are quantitated by their absorption of ultraviolet light at 280 nm. Each set of analytical samples is accompanied by the analysis of a group of standard dog plasma samples prepared to contain amounts of the compound being measured which encompasses the concentration range of the samples.
Four normal beagle dogs weighing between 9.2 and 10.2 Kg are used in the study.

[1] = dog, plasma, po, 2 mg/kg/day, Dog 1, day 1, 2 mg/kg/day PO
[2] = dog, plasma, po, 2 mg/kg/day, Dog 1, day 3, 2 mg/kg/day PO
[3] = dog, plasma, po, 2 mg/kg/day, Dog 1, day 5, 2 mg/kg/day PO
[4] = dog, plasma, po, 2 mg/kg/day, day 1, 2 mg/kg/day PO
[5] = dog, plasma, po, 2 mg/kg/day, day 3, 2 mg/kg/day PO
[6] = dog, plasma, po, 2 mg/kg/day, day 5, 2 mg/kg/day PO

In the case of `CCN(CC)CCOc1ccc(Nc2nccc(-c3ccncc3)n2)cc1.Cl.Cl` [Compound 3, N-[4-[2-(diethylamino)ethoxy]phenyl]-4-(4-pyridinyl)-2-pyrimidinamine dihydrochloride, reference compound], the Tmax [1] is reported as 1 h, the half-life [1] is reported as 1.77 h and the AUC(0-inf) [1] is reported as 374 ng·h/mL. The Tmax [2] was 1 h, the half-life [2] was 1.25 h and the AUC(0-inf) [2] was 423 ng·h/mL. For the same compound, the Tmax [3] was 1 h, the half-life [3] was 2.16 h and the AUC(0-inf) [3] was 392 ng·h/mL. For the same compound, the concentration at 0.5 h (dog, plasma, po, 2 mg/kg/day, day 1, 0.5 h, 2 mg/kg/day PO) was 30 ng/mL, the concentration at 1 h (dog, plasma, po, 2 mg/kg/day, day 1, 1.0 h, 2 mg/kg/day PO) was 125 ng/mL and the concentration at 2 h (dog, plasma, po, 2 mg/kg/day, day 1, 2.0 h, 2 mg/kg/day PO) was 102 ng/mL. It also gave a concentration at 4 h (dog, plasma, po, 2 mg/kg/day, day 1, 4.0 h, 2 mg/kg/day PO) of 40 ng/mL, a concentration at 7 h (dog, plasma, po, 2 mg/kg/day, day 1, 7.0 h, 2 mg/kg/day PO) of less than 30 ng/mL and a Cmax [4] of 125 ng/mL. For the same compound, the AUC(0-t) at 4 h [4] was 302 ng·h/mL, the concentration at 0.5 h (dog, plasma, po, 2 mg/kg/day, day 3, 0.5 h, 2 mg/kg/day PO) was 124 ng/mL and the concentration at 1 h (dog, plasma, po, 2 mg/kg/day, day 3, 1.0 h, 2 mg/kg/day PO) was 192 ng/mL. The concentration at 2 h (dog, plasma, po, 2 mg/kg/day, day 3, 2.0 h, 2 mg/kg/day PO) was 81 ng/mL, the concentration at 4 h (dog, plasma, po, 2 mg/kg/day, day 3, 4.0 h, 2 mg/kg/day PO) was 34 ng/mL and the concentration at 7 h (dog, plasma, po, 2 mg/kg/day, day 3, 7.0 h, 2 mg/kg/day PO) was less than 30 ng/mL. The Cmax [5] was 192 ng/mL, the AUC(0-t) at 4 h [5] was 362 ng·h/mL and the concentration at 0.5 h (dog, plasma, po, 2 mg/kg/day, day 5, 0.5 h, 2 mg/kg/day PO) was less than 30 ng/mL. It also gave a concentration at 1 h (dog, plasma, po, 2 mg/kg/day, day 5, 1.0 h, 2 mg/kg/day PO) of 153 ng/mL, a concentration at 2 h (dog, plasma, po, 2 mg/kg/day, day 5, 2.0 h, 2 mg/kg/day PO) of 82 ng/mL and a concentration at 4 h (dog, plasma, po, 2 mg/kg/day, day 5, 4.0 h, 2 mg/kg/day PO) of 55 ng/mL. For the same compound, the concentration at 7 h (dog, plasma, po, 2 mg/kg/day, day 5, 7.0 h, 2 mg/kg/day PO) was less than 30 ng/mL, the Cmax [6] was 153 ng/mL and the AUC(0-t) at 4 h [6] was 293 ng·h/mL. The k el (dog, plasma, po, 2 mg/kg/day, derived from mean of half-life values, read-out: elimination constant (converted)) was 0.000155 s⁻¹ and the “measurable concentrations in plasma (in words)” value (four dogs, 2 mg/kg/day PO) was “only one dog provided measurable concentrations of compound in the plasma”.
